The text below walks through data of PMC7580722, “Design of new disubstituted imidazo[1,2-b]pyridazine derivatives as selective Haspin inhibitors. Synthesis, binding mode and anticancer biological evaluation” (Journal of Enzyme Inhibition and Medicinal Chemistry, 2020).

Some results are limits rather than exact numbers.

A word on the IC50: it is the concentration that inhibits the measured activity by half. The EC50 is the midpoint of the concentration-response curve. Broadly, the viability is a per cent measure of how many cells are alive, often set against a control.

The target in data set [1] is T1, HsHaspin (Homo sapiens, UniProt Q8TF76).
T1 construct: aa470-798; made in house; host or cells: E. coli
T1 sequence (Q8TF76 470-798): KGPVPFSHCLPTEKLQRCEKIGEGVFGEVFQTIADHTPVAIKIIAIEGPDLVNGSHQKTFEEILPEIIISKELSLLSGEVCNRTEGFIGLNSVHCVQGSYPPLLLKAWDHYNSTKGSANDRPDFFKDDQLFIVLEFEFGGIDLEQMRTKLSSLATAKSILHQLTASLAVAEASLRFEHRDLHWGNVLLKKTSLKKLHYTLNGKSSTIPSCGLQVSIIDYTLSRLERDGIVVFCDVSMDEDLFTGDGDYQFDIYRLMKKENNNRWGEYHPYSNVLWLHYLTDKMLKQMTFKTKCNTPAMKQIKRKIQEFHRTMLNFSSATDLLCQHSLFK
Nature of the data set: Recombinant Haspin kinase assay ([γ-33P]ATP, 15 µM ATP; some values ADP-Glo). The class given is biochemical. The conditions noted are these: recombinant HsHaspin, in vitro. How it is done:
Values are IC50 expressed in µM and calculated from dose–response curves (each point on the curves was performed in triplicate). Selectivity indexes (SI; in brackets) are calculated as follows: SI = IC50 kinase X/IC50 Haspin. ND: not determined. *IC50 values obtained using the ADP-Glo methodology (see Experimental section, Supplementary Material). […]
A, HsCdk9/Cyclin T). Native SscCK1δ /ε and SscGSK3α/β were purified from pig brain whereas HsPlk1, HsCdk1 and HsAurora B were purchased from ProQinase and SignalChem respectively. Kinase assays were performed in […]
mCi/ml; PerkinElmer) in a final volume of 30 µl as previously reported 51. After 30 min incubation at 30°C, the reaction mix was spotted onto GE healthcare P81 phosphocellulose paper using a FilterMate Harvester (PerkinElmer), and the filter was extensively washed with a 1% phosphoric acid solution. The wet filter-bound radioactivity was determined in the presence of 20 µl scintillation fluid (GE healthcare) with a TopCount® Scintillation and Luminescence Counter (PerkinElmer). IC50 values were calculated from dose-response curves […]
Kinase activities using the ADP-Glo methodology (ADP-Glo Kinase Assay; Promega) were assayed according to the assay described in Nguyen et al. 52 and Ibrahim et al. 53. […]
(In general: ADP-Glo first removes unused ATP, then detects ADP through luciferase.)

The target of data set [2] is T2, HsCDK1 (Homo sapiens, UniProt P06493).
T2 construct: purchased ProQinase
T2 sequence (P06493 whole entry): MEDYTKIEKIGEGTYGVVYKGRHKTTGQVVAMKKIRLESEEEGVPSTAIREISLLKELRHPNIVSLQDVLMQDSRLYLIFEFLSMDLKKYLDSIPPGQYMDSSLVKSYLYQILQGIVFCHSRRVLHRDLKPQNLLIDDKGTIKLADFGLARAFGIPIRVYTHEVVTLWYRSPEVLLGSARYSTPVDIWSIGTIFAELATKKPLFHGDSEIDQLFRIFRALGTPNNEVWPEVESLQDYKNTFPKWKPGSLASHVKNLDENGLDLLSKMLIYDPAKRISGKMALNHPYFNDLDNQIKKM
T2 sequence (P14635 whole entry partner): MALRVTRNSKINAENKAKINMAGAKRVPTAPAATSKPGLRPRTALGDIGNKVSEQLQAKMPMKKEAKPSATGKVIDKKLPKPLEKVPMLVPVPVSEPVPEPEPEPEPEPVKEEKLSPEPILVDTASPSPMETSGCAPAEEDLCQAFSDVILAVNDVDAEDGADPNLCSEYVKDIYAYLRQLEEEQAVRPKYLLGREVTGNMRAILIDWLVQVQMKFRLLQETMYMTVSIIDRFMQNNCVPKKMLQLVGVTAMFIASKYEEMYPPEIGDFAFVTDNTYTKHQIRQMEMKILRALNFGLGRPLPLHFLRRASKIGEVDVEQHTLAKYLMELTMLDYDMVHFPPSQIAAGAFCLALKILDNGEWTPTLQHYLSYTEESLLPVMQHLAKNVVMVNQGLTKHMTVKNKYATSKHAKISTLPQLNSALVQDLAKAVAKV
The data set is described as follows: CDK1 kinase assay. The data set is classed as biochemical. How it is done: We therefore tested our compounds on two obvious candidates, HsCDK1 and HsPLK1 (Polo-like_kinase 1) both required for mitotic entry[50]
Values are IC50 expressed in µM and calculated from dose–response curves (each point from the curves was performed in duplicate). NR: not relevant. […]
Recombinant protein kinases were expressed and purified from E. coli (HsHaspin kinase domain aa470-798, HsCdk5/p25, RnDYRK1A kinase domain aa1-499, HsPIM1, MmCLK1) or baculovirus/Sf9 cells (HsCdk2/Cyclin A, HsCdk9/Cyclin T). Native SscCK1δ /ε and SscGSK3α/β were purified from pig brain whereas HsPlk1, HsCdk1 and HsAurora B were purchased from ProQinase and SignalChem respectively. Kinase assays were performed in specific buffers and substrates for each kinase tested in the presence of 15 µM [γ-33P] ATP (3,000 Ci/mmol, 10 mCi/ml; PerkinElmer) in a final volume of 30 µl as previously reported 51. After 30 min incubation at 30°C, the reaction mix was spotted onto GE healthcare P81 phosphocellulose paper using a FilterMate Harvester (PerkinElmer), and the filter was extensively washed with a 1% phosphoric acid solution. The wet filter-bound radioactivity was determined in the presence of 20 µl scintillation fluid (GE healthcare) with a TopCount® Scintillation and Luminescence Counter (PerkinElmer). IC50 values were calculated from dose-response curves

Data set [3] has as its system SH-SY5Y. The data set is described as follows: Cell viability, monolayer (2D), MTS assay. The class given is cell-based. The conditions noted are these: Homo sapiens, 48 h.
In data set [4] the test system is U-2 OS spheroids. Nature of the data set: Spheroid (3D) viability, CellTiter-Glo. The class given is cell-based, human. Conditions: 5 µM, Figure 4(B).
Data set [5] has as its system U-2 OS cells. Nature of the data set: Scratch wound cell migration assay (IncuCyte). Conditions: 0.6 µM, 0.5% FBS, normalised against DMSO control (100%). The data set is classed as cell-based, human.

On to `c1cc2[nH]ncc2cc1-c1cnc2ccc(OC[C@@H]3CNCCO3)nn12` [Compound 21], for which the IC50 in data set [1] worked out at 0.006 µM; in data set [2] (Table 4, read-out: IC50 HsCDK1), 2.35 µM. Besides, in data set [2] (SI = IC50 CDK1/IC50 Haspin), the “SI CDK1/Haspin” value is reported as 392. In data set [3], this compound yielded an EC50 of over 10 µM. For the same compound, the “U-2 OS spheroid remaining viability” value in data set [4] (2 days) is “no effects”. Besides, in data set [4] (Homo sapiens, U2OS, 240 h, 10 days, read-out: U-2 OS spheroid viability), the viability at 5 µM was found to be 69%. In data set [5], the “normalised wound closure after 24 h” value was “around 100%”.
